The values below are quoted from earlier work in patent US12589095B2, “Unit dosage form for transmucosal drug delivery of an active pharmaceutical ingredient” (Primo Pharmatech LLC, priority 2019, dated 2026).

Read-outs that look alike come from different tables or passages of the source.

The conditions of this data set: known / published value, cited from earlier work.

As to `CCCCCCCCCCCC(=O)OCCOCCO` [Diethylene glycol monolaurate], the HLB is 5.5. In the case of `CCCCCCCCCCCCCCCCCC(=O)OCCOCCO` [Diethylene glycol monostearate], the HLB is given as 4.3.

As for `CCCCCCCC/C=C\CCCCCCCC(=O)OCC(O)CO` (stereo not shown) [Glyceryl monooleate], the HLB is on record as 3.4.

In the case of `CCCCCCCCCCCCCCCCCC(=O)OCC(O)CO` (stereo not shown) [Glyceryl monostearate (Tegin), Glyceryl monostearate], the HLB is 4.7.

In the case of `CCCCCCCCCCCCCCCCCC(=O)OCC(O)CO` (stereo not shown) [Glyceryl monostearate], the HLB is given as 2.1. For `CCCCCCCC/C=C\CCCCCCCC(=O)O` [Oleic acid], the HLB is 1.0. For the same molecule, where the note is “listed as Oleic Acid”, the HLB is recorded as 1. Regarding `CCCCCCCC/C=C\CCCCCCCC(=O)[O-].[K+]` [Potassium oleate], the HLB was 18.0.

Take `CCCCCCCC/C=C\CCCCCCCC(=O)[O-].[Na+]` [Sodium oleate]: the HLB is listed as 16.9. In the case of Glyceryl dioleate, the HLB is on record as 1.8. Take Polyethylene glycol 400 monolaurate: the HLB is 12.8.

With “Polyethylene lauryl ether [Polyethylene lauryl ether (Brij 30)]”, the HLB was 8.6. For “Polyoxyethylene lauryl ether [Polyoxyethylene lauryl ether (G-3705)]”, the HLB is 10.5.

Consider “Polyoxyethylene monostearate [Polyoxyethylene monostearate (Myrj 45)]”, for which the HLB is 10.8. Polyoxyethylene sorbitol wax derivative: the HLB was 2.0. For Sorbitan monolaurate [SPAN 20], the HLB result was “SPAN 20 (HLB8.6)”. Moreover, the HLB (listed as Sorbitan monolaurate (Span 20)) was 6.1. With sorbitan monooleate [Span 80], the HLB is recorded as 4.3. Where the note is “listed as Sorbitan mono-oleate (Span 80)”, the HLB is given as 3.8.
